Test results published in patent publication EP1484329A1, “Indole derivatives with apoptosis inducing activity” (Zentaris GmbH, priority 2003, dated 2004).
Values after ≈ are worked out from the molar mass of the structure shown. Counter-ions that a name gives are not always drawn. Like-named read-outs stand apart in the source and are kept apart here.

Key:
P388 = assay: XTT proliferation assay, P388 (wild type); assay type: cell-based, murine; conditions: Mus musculus, P388; read-out: XTT Proliferationsassay, EC50 P388
From the text: (§1) Die Substanzen 1,2, 4-6 wurden in einem Proliferationstest an etablierten Tumorzelllinien auf ihre anti-proliferative Aktivität hin untersucht (D.A. Scuderio et al. Cancer Res. 1988, 48, 4827-4833). Der verwendete Test bestimmt die zelluläre Dehydrogenase-Aktivität und ermöglicht eine Bestimmung der Zellvitalität und indirekt der Zellzahl. Bei den verwendeten Zelllinien handelt es sich um die humane Cervixkarzinom Zelllinie KB/HeLa (ATCC CCL17), die ovariale Adenokarzinomzelllinie SKOV-3 (ATCC HTB77), die humane Glioblastom Zelllinie SF-268 (NCI 503138) und die Lungenkarzinom Zelllinie NCI-H460 (NCI 503473). Des weiteren wurde zur Untersuchung der Zellzyklus-spezifischen Wirkung der Substanz ein RKOp27 Zellsystem verwendet (M. Schmidt et al. Oncogene19(20):2423-9, 2000). Bei RKO handelt es sich um eine humane Kolonkarzinomlinie, in der der Zellzyklusinhibitor p27 ^kip1 mittels des Ecdyson Expressionssystems induziert zur Expression gebracht und zu einem Zellzyklusarrest spezifisch in G2 geführt werden kann. Eine unspezifisch wirkende Substanz hemmt die Proliferation unabhängig davon, ob die RKO Zelle in G1 oder G2 arretiert ist oder nicht. Zellzyklus-spezifische Substanzen wie beispielsweise Tubulininhibitoren sind hingegen nur dann zytotoxisch, wenn Zellen nicht arretiert sind und der Zellzyklus durchlaufen wird. In Tabelle 1 ist die zytotoxische bzw. wachstumshemmende Aktivität der beschriebenen Verbindungen mit / ohne Expression von p27^kip1gezeigt. Die getesteten Verbindungen zeigten im induzierten Zustand von p27^kiP1 keine zytotoxische Aktivität. Die Ergebnisse zeigen eine sehr potente Hemmung der Proliferation ausgewählter Tumorzelllinien durch die genannten Substanzen. Tabelle 1:
(§2) Zur weiteren Charakterisierung wurden die Substanzen 1,2,4-6 gegenüber multi drug resistenten Zelllinien im Vergleich zu den nicht-resistenten Wildtypzelllinien untersucht.
(§3) Bei den untersuchten Zelllinien handelt es sich um die murine L1210, die akute myeloische Leukaemie Zelllinie LT12 und um die resistenten Linien L1210/mdr und LT12/mdr. Außerdem wurden die murine P388 Zelllinie (methyl-cholanthreneinduced lymphoid neoplasm) sowie die Doxorubicin-resistente P388 als Testsysteme herangezogen.

A549 = assay: XTT proliferation assay, A549; assay type: cell-based, human; conditions: for EC50: Homo sapiens, A549, A549, read-out: XTT Proliferationsassay, EC50 A549
From the text: as §1
(§4) Zur weiteren Charakterisierung wurden die Substanzen 1-6 an einem Panel von 7 humanen Tumorzelllinien auf ihre anti-proliferative Wirkung hin untersucht. Bei den untersuchten Zelllinien handelt es sich um die humanen Glioma Zelllinien A172 (ATCC CRL-1620) und U118 (ATCC HTB-15), die humane Lungenkarzinom Zelllinie A549, das humane epidermoide Karzinom A431 (ATCC CRL-2592), die humanen Prostatakarzinom Zelllinien DU145 (ATCC HTB-81) und PC3 (ATCC CRL-1435) und die humane Kolon Adenokarzinomzelllinie HT29 (ATCC HTB-38). Es handelt sich hierbei um sehr gut charakterisierte, etablierte Zelllinien, die von ATCC, ECACC bzw. NCI erhalten und in Kultur genommen wurden. Die in Tab. […]

NCI-H460 = assay: XTT proliferation assay, NCI-H460; assay type: cell-based; conditions: Homo sapiens, read-out: XTT Proliferationsassay, EC50 NCI-H460
From the text: as §1, with “Substanzen.” for “Substanzen. Tabelle 1:”

LT12 = assay: XTT proliferation assay, LT12 (wild type); assay type: cell-based; conditions: Rattus norvegicus, LT12; read-out: XTT Proliferationsassay, EC50 LT12
From the text: as §1, §2, §3

LT12mdr = assay: XTT proliferation assay, LT12mdr (resistant); assay type: cell-based; conditions: read-out: XTT Proliferationsassay, EC50 LT12mdr
From the text: as §1, §2, §3

RKOp27 = assay: XTT proliferation assay, RKOp27 cell system with / without induced p27kip1 expression; assay type: cell-based; conditions: Homo sapiens
From the text: as §1, with “Substanzen.” for “Substanzen. Tabelle 1:”

HT29 = assay: XTT proliferation assay, HT29; assay type: cell-based, human; conditions: for EC50: Homo sapiens, HT-29, HT29, read-out: XTT Proliferationsassay, EC50 HT29
From the text: as §1, §4

SF-268 = assay: XTT proliferation assay, SF-268; assay type: cell-based; conditions: Homo sapiens, read-out: XTT Proliferationsassay, EC50 SF-268
From the text: as §1, with “Substanzen.” for “Substanzen. Tabelle 1:”

DU145 = assay: XTT proliferation assay, DU145; assay type: cell-based, human; conditions: for EC50: Homo sapiens, DU-145, DU145, read-out: XTT Proliferationsassay, EC50 DU145
From the text: as §1, §4

SKOV-3 = assay: XTT proliferation assay, SKOV-3; assay type: cell-based; conditions: Homo sapiens, SK-OV-3; read-out: XTT Proliferationsassay, EC50 SKOV3
From the text: as §1, with “Substanzen.” for “Substanzen. Tabelle 1:”

PC3 = assay: XTT proliferation assay, PC3; assay type: cell-based, human; conditions: for EC50: Homo sapiens, PC-3, PC3, read-out: XTT Proliferationsassay, EC50 PC3
From the text: as §1, §4

A172 = assay: XTT proliferation assay, A172; assay type: cell-based, human; conditions: for EC50: Homo sapiens, A 172, A172, read-out: XTT Proliferationsassay, EC50 A172
From the text: as §1, §4

L1210VCR = assay: XTT proliferation assay, L1210VCR (resistant); assay type: cell-based, murine; conditions: Mus musculus; read-out: XTT Proliferationsassay, EC50 L1210VCR
From the text: as §1, §2, §3

L1210 = assay: XTT proliferation assay, L1210 (wild type); assay type: cell-based, murine; conditions: Mus musculus, L1210; read-out: XTT Proliferationsassay, EC50 L1210
From the text: as §1, §2, §3

A431 = assay: XTT proliferation assay, A431; assay type: cell-based, human; conditions: for EC50: Homo sapiens, A-431, A431, read-out: XTT Proliferationsassay, EC50 A431
From the text: as §1, §4

P388ADR = assay: XTT proliferation assay, P388ADR (doxorubicin-resistant); assay type: cell-based, murine; conditions: Mus musculus, P388/ADR; read-out: XTT Proliferationsassay, EC50 P388ADR
From the text: as §1, §2, §3

KB/HeLa = assay: XTT proliferation assay, KB/HeLa; assay type: cell-based; conditions: Homo sapiens, read-out: XTT Proliferationsassay, EC50 KB/Hela
From the text: as §1, with “Substanzen.” for “Substanzen. Tabelle 1:”

Rindertubulin = assay: Inhibition of tubulin polymerisation in vitro; assay type: biochemical, Rind; conditions: Tubulin with 30% MAPs, mean of two independent experiments
From the text: In diesem Test wird durch Zyklen von Polymerisation und Depolymerisation aufgereinigtes Tubulin eingesetzt, welches durch Zugabe von GTP und Erwärmung zur Polymerisation gebracht wird. […]

U118MG = assay: XTT proliferation assay, U118MG; assay type: cell-based; conditions: Homo sapiens, U-118-MG; read-out: XTT Proliferationsassay, EC50 U118MG
From the text: as §1, §4

[1] = RKOP27, without expression of p27kip1, read-out: XTT Proliferationsassay, EC50 RKOP27
[2] = RKOP27 ind., p27kip1 expression induced (cells arrested), read-out: XTT Proliferationsassay, EC50 RKOP27 ind.

SMILES | EC50 (P388) [µg/mL] | EC50 (A549) [µg/mL] | EC50 (NCI-H460) [µg/mL] | EC50 (LT12) [µg/mL] | EC50 (LT12mdr) [µg/mL] | EC50 (RKOp27; [1]) [µg/mL] | EC50 (RKOp27; [2]) [µg/mL] | EC50 (HT29) [µg/mL] | EC50 (SF-268) [µg/mL] | EC50 (DU145) [µg/mL] | EC50 (SKOV-3) [µg/mL] | EC50 (PC3) [µg/mL] | EC50 (A172) [µg/mL] | EC50 (L1210VCR) [µg/mL] | EC50 (L1210) [µg/mL] | EC50 (A431) [µg/mL] | EC50 (P388ADR) [µg/mL] | EC50 (KB/HeLa) [µg/mL] | EC50 (U118MG) [µg/mL] | Hemmung der Tubulin-Polymerisation, EC50 (Rindertubulin) [µg/mL] | other results
Cc1ccc2cc(NC(=O)C(=O)c3cn(Cc4ccc(Cl)cc4)c4ccccc34)ccc2n1 [Verbindung 1, 2-[1-(4-Chlor-benzyl)-1 H-indol-3-yl]-N-(2-methyl-chinolin-6-yl)-2-oxo-acetamid, reference compound] | 0.13 (≈ 0.286 µM) | 0.304 (≈ 0.67 µM) | 0.344 (≈ 0.758 µM) | 0.133 (≈ 0.293 µM) | 0.218 (≈ 0.48 µM) | 0.23 (≈ 0.507 µM) | > 3.16 | 0.266 (≈ 0.586 µM) | 0.261 (≈ 0.575 µM) | 0.329 (≈ 0.725 µM) | 0.174 (≈ 0.383 µM) | 0.199 (≈ 0.438 µM) | 0.165 (≈ 0.363 µM) | 0.304 (≈ 0.67 µM) | 0.233 (≈ 0.513 µM) | 0.076 (≈ 0.167 µM) | 0.212 (≈ 0.467 µM) | 0.183 (≈ 0.403 µM) |  |  | Hemmung der Tubulin-Polymerisation, EC50 (Rindertubulin; listed as 1 (V)): 1.16 µg/mL
Cc1ccc2cc(NC(=O)C(=O)c3cn(Cc4ccc(Cl)cc4)c4ccccc34)ccc2n1 [Verbindung 3, 6-{2-[1-(4-Chlor-benzyl)-1 H-indol-3-yl]-2-oxo-acetylamino}-2-methyl-chinolin Hydrochlorid, reference compound] |  |  |  |  |  |  |  |  |  |  |  |  |  |  |  |  |  |  | 0.142 |  | XTT Proliferationsassay, EC50 A549 (A549; A549, listed as 3 (V)): 0.405 µg/mL; XTT Proliferationsassay, EC50 HT29 (HT29; HT29, listed as 3 (V)): 0.219 µg/mL; XTT Proliferationsassay, EC50 DU145 (DU145; DU145, listed as 3 (V)): 0.426 µg/mL; XTT Proliferationsassay, EC50 PC3 (PC3; PC3, listed as 3 (V)): 0.165 µg/mL; XTT Proliferationsassay, EC50 A172 (A172; A172, listed as 3 (V)): 0.171 µg/mL; XTT Proliferationsassay, EC50 A431 (A431; A431, listed as 3 (V)): 0.075 µg/mL
O=C(Nc1ccc2[nH]ncc2c1)C(=O)c1cn(Cc2ccc(Cl)cc2)c2ccccc12 [Verbindung 6, 2-[1-(4-Chlor-benzyl)-1H-indol-3-yl]-N-(1H-indazol-5-yl)-2-oxo-acetamid] | 0.175 (≈ 0.408 µM) | 0.323 (≈ 0.753 µM) | 0.233 (≈ 0.543 µM) | 0.084 (≈ 0.196 µM) | 0.093 (≈ 0.217 µM) | 0.148 (≈ 0.345 µM) | > 3.16 | 0.059 (≈ 0.138 µM) | > 3.16 | 0.506 (≈ 1.18 µM) | 0.144 (≈ 0.336 µM) | 0.093 (≈ 0.217 µM) | 0.342 (≈ 0.797 µM) | 0.241 (≈ 0.562 µM) | 0.246 (≈ 0.574 µM) | 0.07 (≈ 0.163 µM) | 0.231 (≈ 0.539 µM) | 0.335 (≈ 0.781 µM) | 0.097 (≈ 0.226 µM) | 1.26 | 
O=C1c2c(O)ccc(O)c2C(=O)c2c(NCCNCCO)ccc(NCCNCCO)c21 [mitoxantron, reference compound] |  |  |  |  |  |  |  |  |  |  |  |  |  |  |  |  | 0.608 (≈ 1.37 µM) |  |  |  | 
CC[C@]1(O)C[C@H]2CN(CCc3c([nH]c4ccccc34)[C@@](C(=O)OC)(c3cc4c(cc3OC)N(C=O)[C@H]3[C@@](O)(C(=O)OC)[C@H](OC(C)=O)[C@]5(CC)C=CCN6CC[C@]43[C@@H]65)C2)C1 [vincristine, reference compound] |  |  |  |  |  |  |  |  |  |  |  |  |  |  |  |  |  |  |  | 0.35 | 
